Experimental data taken from patent US9295706B2, “Phytotherapic pharmaceutical combination of Lippia salviifolia and Lippia sidoides, phytotherapic pharmaceutical composition, process for preparing a phytotherapic pharmaceutical composition and veterinary uses thereof” (priority 2010, dated 2016).

Tests used:
Format in all cases: cell-based
[1] = tested on: Candida albicans; assay: Minimum Inhibitory Concentration (MIC) against Candida albicans; details: Candida albicans strain
[2] = tested on: Staphylococcus aureus; assay: Minimum Inhibitory Concentration (MIC) against Staphylococcus aureus; details: Staphylococcus aureus strain
[3] = tested on: Pseudomonas aeruginosa; assay: Minimum Inhibitory Concentration (MIC) against Pseudomonas aeruginosa; details: Pseudomonas aeruginosa strain
[4] = tested on: Escherichia coli; assay: Minimum Inhibitory Concentration (MIC) against Escherichia coli; details: Escherichia coli strain
[5] = tested on: Staphylococcus epidermidis; assay: Minimum Inhibitory Concentration (MIC) against Staphylococcus epidermidis; details: Staphylococcus epidermidis strain

C[C@@H]1[C@H](O)[C@@H](C)/C=C/C=C/C=C/C=C/C=C/C=C/C=C/[C@H](O[C@@H]2O[C@H](C)[C@@H](O)[C@H](N)[C@@H]2O)C[C@@H]2O[C@](O)(C[C@@H](O)C[C@@H](O)[C@H](O)CC[C@@H](O)C[C@@H](O)CC(=O)O[C@H]1C)C[C@H](O)[C@H]2C(=O)O [Amphotericin B]
MIC Values [1]: 3.15 (b) μg/ml

Gemtamicin
MIC Values [2]: 75 (a) μg/ml | MIC Values [3]: 37 (a) μg/ml | MIC Values [4]: 75 (a) μg/ml | MIC Values [5]: 150 (a) μg/ml
